Reference: patent US6706855B1, “Antimicrobial polymer” (Avecia Limited, priority 1999, dated 2004)

Columns and labels:
[1] = test system: Bacillus subtilis NCIB 1650; assay: Minimum Inhibitory Concentration (MIC) against Bacillus subtilis; type: cell-based; settings: Bacteria
Description: (§1) The Minimum Inhibitory Concentration (MIC) against a range of fungi and bacteria were determined for each of the antimicrobial copolymers prepared in Examples 1 to 4 and Comparative Example A. The MIC results are shown in Table 3: […]

[2] = test system: a range of fungi and bacteria; assay: MIC against a range of fungi and bacteria, overall statement; type: cell-based; settings: summary of Table 3; compared to Comparative Example A or to the copolymers
Description: as §1

[3] = test system: Pseudomonas aeruginosa NCIB 10421; assay: Minimum Inhibitory Concentration (MIC) against Pseudomonas aeruginosa; type: cell-based; settings: Bacteria
Description: as §1

[4] = test system: Penicillium funiculosum IMI 114933; assay: Minimum Inhibitory Concentration (MIC) against Penicillium funiculosum; type: cell-based; settings: Fungi
Description: as §1

[5] = test system: Pseudomonas fluorescens (with Lux AB gene) our ref D481; assay: Minimum Inhibitory Concentration (MIC) against Pseudomonas fluorescens; type: cell-based; settings: Bacteria
Description: as §1

[6] = test system: Escherichia coli NCIB 9132; assay: Minimum Inhibitory Concentration (MIC) against Escherichia coli; type: cell-based; settings: Bacteria
Description: as §1

[7] = test system: Candida albicans NCYC 10231; assay: Minimum Inhibitory Concentration (MIC) against Candida albicans; type: cell-based; settings: Fungi
Description: as §1

[8] = test system: Staphylococcus aureus NCIB 9518; assay: Minimum Inhibitory Concentration (MIC) against Staphylococcus aureus; type: cell-based; settings: Bacteria
Description: as §1

[9] = test system: Klebsiella pneumoniae ATCC 4352; assay: Minimum Inhibitory Concentration (MIC) against Klebsiella pneumoniae; type: cell-based; settings: Bacteria
Description: as §1

Q: For `NCCCCCCNc1ccc2c3c(cccc13)C(=O)N(CCCCCCN)C2=O` [Marker 1, N-(6-aminohexyl)-4-(6-aminohexylamino)-1,8-naphthalimide], which “MIC Bs” value [1] is on record?
A: 500

Q: What about the “antimicrobial effect (MIC, in words)” value [2] of the same compound?
A: little or no antimicrobial effect

Q: And the “MIC Psa” value [3]?
A: 999

Q: And the “MIC Pp” value [4]?
A: 999

Q: And the “MIC Ps.fl” value [5]?
A: 500

Q: What about the “MIC Ec” value [6] of the same compound?
A: 500

Q: And the “MIC Ca” value [7]?
A: 999

Q: And the “MIC Sa” value [8]?
A: 32

Q: And the melting point?
A: 113.6 to 114.9 °C

Q: And the “MIC K.pn” value [9]?
A: 999
